The assay concerns compound-treated mice. Kind of assay: Neuropharmacological assay (SmartCube): behavioral activity signature and minimal effective dose. It is filed as in vivo. The note with it: for minimal effective dose: Mus musculus, ip, MED = dose having 50% or more total activity; for AD: ADHD (probability of activity signature) / AG: analgesic (probability of activity signature) / AX: anxiolytic (probability of activity signature) / CE: cognitive enhancer (probability of activity signature) / DP: anti-depressant (probability of activity signature) / MS: mood stabilizer (probability of activity signature) / PS: anti-psychotic (probability of activity signature) / SD: sedative hypnotic (probability of activity signature) / UN: uncharacterized CNS activity (probability of activity signature): i.p. 15 min before test, most efficacious dose(s). In outline:
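Mice dosed i.p. 15 min before test, compound in N-methyl-2-pyrrolidone/PEG/propylene glycol, 3 doses; video-captured behavior matched to reference-drug signatures, giving per-class probabilities at most efficacious dose. MED from doses typically 0.3–30 mpk, defined as lowest dose with ≥50% total activity.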

[1] abbreviates: read-out: Potency: minimal effective dose (MED), binned.
Setting [2] is: read-out: Potency: minimal effective dose (MED).

Experimental findings from patent US11077090B2, “Compounds and compositions and uses thereof” (Sunovion Pharmaceuticals Inc., priority 2016, dated 2021) are described below.

The structures appear in SMILES notation. Where two headings read alike, the source gives them in different places.

The minimal effective dose is the lowest level tested that produced the effect sought.

`Cc1cccc2c1[C@H](C)OC[C@@H]2N` [Example 255]: the “AD: ADHD (probability of activity signature)” value (“AD: ADHD” for short) is recorded as “+ (LOQ ≤ + <5%)”, the “AG: analgesic (probability of activity signature)” value (shortened to “AG: analgesic”) was “+ (LOQ ≤ + <5%)”, the “AX: anxiolytic (probability of activity signature)” value (“AX: anxiolytic” for short) was “+ (LOQ ≤ + <5%)” and the “CE: cognitive enhancer (probability of activity signature)” value (“CE: cognitive enhancer” for short) was “+ (LOQ ≤ + <5%)”. Moreover, the “DP: anti-depressant (probability of activity signature)” value (“DP: anti-depressant” for short) is given as “+ (LOQ ≤ + <5%)”, the “MS: mood stabilizer (probability of activity signature)” value (from here on “MS: mood stabilizer”) is listed as “+ (LOQ ≤ + <5%)”, the “PS: anti-psychotic (probability of activity signature)” value (from here on “PS: anti-psychotic”) is reported as “+ (LOQ ≤ + <5%)” and the “SD: sedative hypnotic (probability of activity signature)” value (“SD: sedative hypnotic” for short) was “++ (5% ≤ ++ <25%)”. Also, the “UN: uncharacterized CNS activity (probability of activity signature)” value (“UN: uncharacterized CNS activity” below) is on record as “++ (5% ≤ ++ <25%)”. Also, the minimal effective dose under setting [1] lay within 10 to 30 mg/kg.
`Cl.NC1COCc2ccc(-c3ccccc3)cc21` (stereo not drawn) [Example 7, 6-Phenylisochroman-4-amine hydrochloride]: the “AD: ADHD” value was “+ (LOQ ≤ + <5%)”, the “AG: analgesic” value is “+ (LOQ ≤ + <5%)”, the “AX: anxiolytic” value is reported as “++ (5% ≤ ++ <25%)” and the “CE: cognitive enhancer” value was “++ (5% ≤ ++ <25%)”. Also, the “DP: anti-depressant” value is “++ (5% ≤ ++ <25%)”, the “MS: mood stabilizer” value is recorded as “++ (5% ≤ ++ <25%)”, the “PS: anti-psychotic” value was “++ (5% ≤ ++ <25%)” and the “SD: sedative hypnotic” value is “+ (LOQ ≤ + <5%)”. In addition, the “UN: uncharacterized CNS activity” value is on record as “+++ (25% ≤ +++ <50%)”. Also, the minimal effective dose under setting [2] fell in the range of 10 to 30 mg/kg.
Regarding `CC[C@@H]1OCc2cccc(C)c2[C@@H]1N.Cl` [Example 208], the “AD: ADHD” value is listed as “+ (LOQ ≤ + <5%)”, the “AG: analgesic” value is on record as “+ (LOQ ≤ + <5%)”, the “AX: anxiolytic” value was “+++ (25% ≤ +++ <50%)” and the “CE: cognitive enhancer” value was “++ (5% ≤ ++ <25%)”. Further, the “DP: anti-depressant” value is “++ (5% ≤ ++ <25%)”, the “MS: mood stabilizer” value is “++ (5% ≤ ++ <25%)”, the “PS: anti-psychotic” value is “++ (5% ≤ ++ <25%)” and the “SD: sedative hypnotic” value is given as “+ (LOQ ≤ + <5%)”. Moreover, the “UN: uncharacterized CNS activity” value was “+++ (25% ≤ +++ <50%)”. Besides, the minimal effective dose under setting [1] lay within 3 to 10 mg/kg.
Turning to `C[C@H]1OCc2ccccc2[C@@H]1N` (single isomer, unassigned) [Example 151], the “AD: ADHD” value is “+ (LOQ ≤ + <5%)”, the “AG: analgesic” value is listed as “++ (5% ≤ ++ <25%)”, the “AX: anxiolytic” value is recorded as “+++ (25% ≤ +++ <50%)” and the “CE: cognitive enhancer” value is recorded as “++ (5% ≤ ++ <25%)”. Further, the “DP: anti-depressant” value is on record as “++ (5% ≤ ++ <25%)”, the “MS: mood stabilizer” value is listed as “+ (LOQ ≤ + <5%)”, the “PS: anti-psychotic” value is recorded as “++ (5% ≤ ++ <25%)” and the “SD: sedative hypnotic” value is given as “++ (5% ≤ ++ <25%)”. In addition, the “UN: uncharacterized CNS activity” value was “++ (5% ≤ ++ <25%)”. Besides, the minimal effective dose under setting [2] was in the range of 3 to 10 mg/kg.
Consider `Cc1ccc2c(c1)C(N)COC2.Cl` (stereo not drawn) [Example 26], for which the “AD: ADHD” value is listed as “+ (LOQ ≤ + <5%)”, the “AG: analgesic” value was “++ (5% ≤ ++ <25%)”, the “AX: anxiolytic” value is listed as “++ (5% ≤ ++ <25%)” and the “CE: cognitive enhancer” value is “++ (5% ≤ ++ <25%)”. In addition, the “DP: anti-depressant” value is given as “++ (5% ≤ ++ <25%)”, the “MS: mood stabilizer” value is “+ (LOQ ≤ + <5%)”, the “PS: anti-psychotic” value is “++ (5% ≤ ++ <25%)” and the “SD: sedative hypnotic” value is reported as “+ (LOQ ≤ + <5%)”. Moreover, the “UN: uncharacterized CNS activity” value is given as “++++ (50% ≤ ++++)”. The minimal effective dose under setting [2] was less than 3 mg/kg.
Take `C[C@@H]1OCc2cccc(F)c2[C@@H]1N.Cl` [Example 217]: the “AD: ADHD” value is on record as “+ (LOQ ≤ + <5%)”, the “AG: analgesic” value is given as “+ (LOQ ≤ + <5%)”, the “AX: anxiolytic” value is on record as “+++ (25% ≤ +++ <50%)” and the “CE: cognitive enhancer” value was “++ (5% ≤ ++ <25%)”. The “DP: anti-depressant” value is “++ (5% ≤ ++ <25%)”, the “MS: mood stabilizer” value is “+ (LOQ ≤ + <5%)”, the “PS: anti-psychotic” value is listed as “++ (5% ≤ ++ <25%)” and the “SD: sedative hypnotic” value was “+ (LOQ ≤ + <5%)”. Moreover, the “UN: uncharacterized CNS activity” value is given as “++++ (50% ≤ ++++)”. The minimal effective dose under setting [1] fell in the range of 10 to 30 mg/kg.
Turning to `Cc1ccc(Cl)c2c1C(N)COC2.Cl` (stereo not drawn) [Example 48, 8-Chloro-5-methylisochroman-4-amine hydrochloride], the “AD: ADHD” value is recorded as “+ (LOQ ≤ + <5%)”, the “AG: analgesic” value was “++ (5% ≤ ++ <25%)”, the “AX: anxiolytic” value was “+++ (25% ≤ +++ <50%)” and the “CE: cognitive enhancer” value is reported as “+++ (25% ≤ +++ <50%)”. The “DP: anti-depressant” value is recorded as “+ (LOQ ≤ + <5%)”, the “MS: mood stabilizer” value is reported as “+ (LOQ ≤ + <5%)”, the “PS: anti-psychotic” value was “++ (5% ≤ ++ <25%)” and the “SD: sedative hypnotic” value is listed as “++ (5% ≤ ++ <25%)”. Further, the “UN: uncharacterized CNS activity” value was “++ (5% ≤ ++ <25%)”. The minimal effective dose under setting [2] was less than 3 mg/kg.
With `Cl.NC1COCc2cccc(F)c21` (stereo not drawn) [Example 22], the “AD: ADHD” value is on record as “+ (LOQ ≤ + <5%)”, the “AG: analgesic” value is given as “++ (5% ≤ ++ <25%)”, the “AX: anxiolytic” value is recorded as “++ (5% ≤ ++ <25%)” and the “CE: cognitive enhancer” value is “++ (5% ≤ ++ <25%)”. In addition, the “DP: anti-depressant” value was “++ (5% ≤ ++ <25%)”, the “MS: mood stabilizer” value is on record as “+ (LOQ ≤ + <5%)”, the “PS: anti-psychotic” value is recorded as “++ (5% ≤ ++ <25%)” and the “SD: sedative hypnotic” value was “+ (LOQ ≤ + <5%)”. The “UN: uncharacterized CNS activity” value is listed as “+++ (25% ≤ +++ <50%)”. Besides, the minimal effective dose under setting [2] lay within 10 to 30 mg/kg.
Consider `N[C@H]1COCc2c(Cl)cccc21` [Example 132], for which the “AD: ADHD” value was “+ (LOQ ≤ + <5%)”, the “AG: analgesic” value is “++ (5% ≤ ++ <25%)”, the “AX: anxiolytic” value is listed as “+++ (25% ≤ +++ <50%)” and the “CE: cognitive enhancer” value is reported as “+++ (25% ≤ +++ <50%)”. Also, the “DP: anti-depressant” value was “++ (5% ≤ ++ <25%)”, the “MS: mood stabilizer” value was “+ (LOQ ≤ + <5%)”, the “PS: anti-psychotic” value is reported as “++ (5% ≤ ++ <25%)” and the “SD: sedative hypnotic” value is recorded as “++ (5% ≤ ++ <25%)”. The “UN: uncharacterized CNS activity” value was “+++ (25% ≤ +++ <50%)”. The minimal effective dose under setting [2] is less than 3 mg/kg.
